# Assays:
# [1] = test system: lens; assay: Pharmacological Test 1: lens elasticity after instillation of EV06; format: in vivo, C57BL/6J mice; settings: all of the 0.5%, 1.5% and 5% groups compared with vehicle control group
# Protocol: The effect of lipoic acid choline ester (EV06) on the lens elasticity was examined. The tests were conducted with reference to the methods described in InvestOphthalmol Vis Sci, 57, 2851-2863, 2016. EV06 is a compound represented by the following formula (2): A vehicle comprising 0.1% (w/v) of ethyl pyruvate, 0.269% (w/v) of sodium dihydrogenphosphate monohydrate (NaH2PO4H2O), 0.433% (w/v) of disodium hydrogenphosphate ([…]), 0.2% (w/v) of hydroxypropyl methylcellulose, and 0.5% (w/v) of NaCl was prepared. EV06 was sonicated with the addition of the vehicle to prepare a 5% (w/v) suspension. The resulting 5% (w/v) suspension was diluted with the vehicle to prepare a 1.5% (w/v) solution. Further, the resulting 1.5% (w/v) solution was diluted with the vehicle to prepare a 0.5% (w/v) solution. The total amount of each sample to be used in one day was prepared before use. […] 4) The lens was placed on a glass slide, and an all-in-one fluorescence microscope BZ-9000 (Keyence) was used to capture an image of the lens (Image a). […] 6) A change in the lens diameter was calculated from Equation 1 wherein the lens diameter of Image a is subtracted from the lens diameter of Image b, as described below. Then, the lens elasticity improvement of each sample group compared with the vehicle control group was calculated from Equation 2 described below. […]
# [2] = test system: anterior segment of the eye; assay: Ocular Irritation Test (McDonald-Shadduck method, lens observation, histopathology); format: in vivo, Japanese White rabbits
# Protocol: A vehicle (aqueous solution) comprising 0.1% (w/v) of ethyl pyruvate, 0.269% (w/v) of sodium dihydrogenphosphate monohydrate ([…]), 0.433% (w/v) of disodium hydrogenphosphate (Na2HPO4), 0.2% (w/v) of hydroxypropyl methylcellulose, 0.5% (w/v) of NaCl was prepared.
# Group treated with an ophthalmic suspension of ursodeoxycholic acid 1% (w/v), 3% (w/v), and 10% (w/v) ursodeoxycholic acid ophthalmic suspensions were prepared in the same manner as in the above pharmacological tests. These ophthalmic suspensions and the vehicle were each instilled into the left eye of Japanese White rabbits at a dose of 50 μL/eye with pipette twice per day at a 6-hour interval for 2 weeks. One hour after the final instillation, ocular irritation of anterior segment of the eye was evaluated according to the McDonald-Shadduck method, and the lens was observed. The contralateral eye was untreated.
# The ocular irritation of anterior segment of the eye was scored according to the following criteria:
# +1: mild; +2: moderate; +3: severe.
# [3] = test system: lens; assay: Pharmacological Test 5: lens elasticity, 1% ursodeoxycholic acid once-daily for 1, 3, 7, 10 or 14 days; format: in vivo, C57BL/6J mice; settings: for Lens elasticity improvement: 1% sample, QD, 24 h after final instillation, vs untreated group
# Protocol: A vehicle comprising 0.1% (w/v) of ethyl pyruvate, 0.269% (w/v) of sodium dihydrogenphosphate monohydrate (NaH2PO4H2O), 0.433% (w/v) of disodium hydrogenphosphate (Na2HPO4), 0.2% (w/v) of hydroxypropyl methylcellulose, 0.5% (w/v) of NaCl was prepared. Ursodeoxycholic acid was sonicated with the addition of the vehicle to prepare a 1.0% (w/v) suspension. The total amount of the sample to be used in one day was prepared before use. 1) The test sample (2.5 μL/eye) was instilled into both eyes of 8-month-old C57BL/6J mice with a Pipetman once per day (QD; around 13:30) for 1, 3, 7, 10, or 14 days. 2) Twenty-four hours after the final instillation, the mice were euthanized by carbon dioxide inhalation, and then the eyeballs were extracted and rinsed with Hank's balanced salt solution (HBSS). 3) The sclera near the optic nerve was cut with a razor, the lens was removed through the incision, and the removed lens was immersed in HBSS. 4) The lens was placed on a glass slide, and an all-in-one fluorescence microscope BZ-9000 (Keyence) was used to capture an image of the lens (image a). 5) Next, one cover glass (Corning^(registered trade mark) 22×22 mm Square) was placed on the lens, and an image in which the thickness of the lens changed due to the weight was similarly captured (Image b). 6) A change in the lens diameter was calculated from Equation 1 wherein the lens diameter of Image a is subtracted from the lens diameter of Image b, as described below. Then, the lens elasticity improvement of each sample group compared with the […] was calculated from Equation 2 described below. Each mean of the untreated group and each ursodeoxycholic acid sample group was based on 9 or 10 eyes. Change in lens diameter=Lens diameter in Image b of each test sample−Lens diameter in Image a of each test sample (Equation 1) Lens elasticity improvement of each sample group=Mean change in lens diameter of each Test sample group−Mean change in lens diameter of Untreated group (Equation 2)
# [4] = after 2 week-repeated instillation of 1%, 3%, 10% ophthalmic suspensions
Structure (SMILES),"Lens diameter / elasticity improving effect, in words [1]","Histopathological examination of the eyes, in words [2, 4]","Observation of ocular irritation of anterior segment of the eye and lens observation, in words [2, 4]","Safety of the ophthalmic suspensions, in words ([2]; rabbit, in vivo)","Lens elasticity improvement, in words ([3]; 1% sample instilled once-daily, by duration of instillation)",Lens elasticity improvement ([3]; 1 day),Lens elasticity improvement ([3]; 3 days),Lens elasticity improvement ([3]; 7 days),Lens elasticity improvement ([3]; 10 days),Lens elasticity improvement ([3]; 14 days)
"C[N+](C)(C)CCOC(=O)CCCC[C@@H]1CCSS1 [EV06, lipoic acid choline ester]",increased lens diameter,–,–,–,–,–,–,–,–,–
"C[C@H](CCC(=O)O)[C@H]1CC[C@H]2[C@@H]3[C@@H](O)C[C@@H]4C[C@H](O)CC[C@]4(C)[C@H]3CC[C@]12C [ursodeoxycholic acid, 3α,7β-Dihydroxy-5β-cholan-24-oic acid]",–,no abnormal findings,no abnormal findings,highly safe,showed definitely an improvement in lens elasticity after instillation for 3 days,9.6 μm,21.1 μm,27.4 μm,38.1 μm,34.2 μm
